{
  "source": "patent EP0557876A1",
  "about": "“Use of xanthine derivatives for the treatment of muscle damage subsequent to complete interruption of blood circulation” (HOECHST AKTIENGESELLSCHAFT, priority 1992, dated 1993)",
  "system": "Muskelfasern",
  "test": "Muscle fibre diameter after 3 h tourniquet interruption of blood circulation in a hind limb and subsequent reperfusion",
  "assay_type": "in vivo, Cercopithecus pygerythrus",
  "set-up": "durchschnittliche Durchmesser Muskelfaser Typ1 / durchschnittliche Durchmesser Muskelfaser Typ2a: unit not given here",
  "procedure": "Zwei Gruppen von acht erwachsenen, männlichen südafrikanischen Meerkatzen (Cercopithecus pygerythrus) werden untersucht. Die Anasthäsie der Tiere erfolgt intramuskulär mit 15 mg/kg Ketamin (Warner Lambert) und wird intravenös mit Thiopenton Natrium (25 mg/kg, May und Baker) aufrecht erhalten. Eine hintere Extremität wird durch eine pneumatische Abschnürbinde und eine Esmarch Bandage blutleer gemacht. Die Unterbrechung der Blutzirklation wird drei Stunden aufrechterhalten, dann wird die Unterbrechung beendet und die Tiere können aus der Betäubung aufwachen. Die Entnahme der Muskelgewebeproben erfolgt unter Betäubung (15 mg/kg Ketamin).\n20 mg/kg Verbindung 1 wird intravenös über 30 Minuten den Tieren appliziert bevor die Unterbrechung der Blutzirkulation erfolgt.\nDas entnommene Muskelgewebe wird sofort in Isopentan bei -183° C eingefroren. Die Präparation des Muskelgewebes erfolgt wie bei Dubowitz (Dubowitz et al. Muscle Biopsy A practical Approach, London, Bailliere Tindall, 1985, S. 82 - 128) beschrieben. Mikroskopische Schnitte werden mit Muskelfaser-ATPase für 30 Minuten bei pH 9,4 gefärbt, eingebettet und im Lichtmikroskop untersucht. Die Durchmesser von wenigstens 200 Muskelfasern werden mit einem computerisierten Video-Image-Analysator ausgewertet.\nDer durchschnittliche Durchmesser jedes Muskelfasertyps wird in Tabelle 1 beschrieben.",
  "key": {"[1]": {"details": "Unterbrechung der Blutzirkulation, lower part of Tabelle 1 (12/18/24 h series), 20 mg/kg i.v."}, "[2]": {"details": "Unterbrechung der Blutzirkulation, upper part of Tabelle 1 (3/6 h series), 20 mg/kg i.v."}, "[3]": {"details": "Vor Unterbrechung der Blutzirkulation, lower part of Tabelle 1 (12/18/24 h series), 20 mg/kg i.v. over 30 min before interruption"}, "[4]": {"details": "Vor Unterbrechung der Blutzirkulation, upper part of Tabelle 1 (3/6 h series), 20 mg/kg i.v. over 30 min before interruption"}},
  "note": "Marks after values point to notes of the source that are not given here.",
  "data": [
    {"smiles": "CCOCn1cnc2c1c(=O)n(CCCCC(C)(C)O)c(=O)n2C", "note": "[Verbindung 1, 7-Ethoxymethyl-1-(5-hydroxy-5-methylhexyl)-3-methylxanthin]", "values": [
      {"measurement": "durchschnittliche Durchmesser Muskelfaser Typ1", "setting": "Nach 3 Stunden, 20 mg/kg i.v.", "value": "39,89*"},
      {"measurement": "durchschnittliche Durchmesser Muskelfaser Typ2a", "setting": "Nach 3 Stunden, 20 mg/kg i.v.", "value": "48,55*"},
      {"measurement": "durchschnittliche Durchmesser Muskelfaser Typ1", "setting": "Nach 6 Stunden, 20 mg/kg i.v.", "value": "43,42*"},
      {"measurement": "durchschnittliche Durchmesser Muskelfaser Typ2a", "setting": "Nach 6 Stunden, 20 mg/kg i.v.", "value": "53,37*"},
      {"measurement": "durchschnittliche Durchmesser Muskelfaser Typ1", "setting": "Nach 12 Stunden, 20 mg/kg i.v.", "value": "35,79"},
      {"measurement": "durchschnittliche Durchmesser Muskelfaser Typ2a", "setting": "Nach 12 Stunden, 20 mg/kg i.v.", "value": "42,28*"},
      {"measurement": "durchschnittliche Durchmesser Muskelfaser Typ1", "setting": "Nach 18 Stunden, 20 mg/kg i.v.", "value": "34,68"},
      {"measurement": "durchschnittliche Durchmesser Muskelfaser Typ2a", "setting": "Nach 18 Stunden, 20 mg/kg i.v.", "value": "41,31"},
      {"measurement": "durchschnittliche Durchmesser Muskelfaser Typ1", "setting": "Nach 24 Stunden, 20 mg/kg i.v.", "value": "33,00"},
      {"measurement": "durchschnittliche Durchmesser Muskelfaser Typ2a", "setting": "Nach 24 Stunden, 20 mg/kg i.v.", "value": "40,24"},
      {"measurement": "durchschnittliche Durchmesser Muskelfaser Typ1", "setting": "[1]", "value": "33,21"},
      {"measurement": "durchschnittliche Durchmesser Muskelfaser Typ2a", "setting": "[1]", "value": "38,69"},
      {"measurement": "durchschnittliche Durchmesser Muskelfaser Typ1", "setting": "[2]", "value": "36,28"},
      {"measurement": "durchschnittliche Durchmesser Muskelfaser Typ2a", "setting": "[2]", "value": "44,75"},
      {"measurement": "durchschnittliche Durchmesser Muskelfaser Typ1", "setting": "[3]", "value": "36,50"},
      {"measurement": "durchschnittliche Durchmesser Muskelfaser Typ2a", "setting": "[3]", "value": "45,09"},
      {"measurement": "durchschnittliche Durchmesser Muskelfaser Typ1", "setting": "[4]", "value": "36,50"},
      {"measurement": "durchschnittliche Durchmesser Muskelfaser Typ2a", "setting": "[4]", "value": "45,09"},
      {"measurement": "Schwellung der Muskelfasern vom Typ 1 und 2a", "setting": "nach 18 - 24 Stunden Wiederdurchblutung, 20 mg/kg i.v.", "value": "signifikant verringerte Schwellung"}
    ]}
  ]
}
